Experimental data as given in US8846111B2, “Compositions and methods for establishing and/or maintaining pregnancy” (Alltech, Inc., priority 2007, dated 2014).

System: gene encoding relaxin
Assay: AFFYMETRIX chicken genome array, oviduct RNA of hens fed selenium: relaxin
Format: in vivo
Conditions: 0.3 ppm selenium in diet, over forty weeks, relative to selenium deficient animals
From the text: In an effort to examine possible benefits of administration of selenium on female reproductive performance, hens were randomly selected from a broiler-breeder flock housed at Coldstream poultry facility, University of Kentucky. The hens were maintained on a selenium-deficient diet from 6 weeks of age until 22 weeks of age and were then placed on the following dietary treatments for over forty weeks until the time of sampling: 1) Control, selenium-deficient, Torula yeast-based diet (0.02 ppm selenium); 2) The control diet supplemented with 0.3 ppm selenium from sodium selenite; and 3) The control diet supplemented with 0.3 ppm selenium from SEL-PLEX. Hens were taken from each of the three experimental groups, their oviducts removed, flash-frozen and stored at −80° C. prior to RNA isolation.
Labeled RNA preparations from oviduct were hybridized with AFFYMETRIX chicken genome arrays containing 38,000 probe sets using standard methodology.

## O=[Se](O)O [sodium selenite]
  relaxin gene expression, upregulation: no significant effect
